This passage reports viability results from publication PMC12040169 (PLOS Biology, 2025).

The nature of the first data set: in vitro. Conditions: human, hela cells, % viability.
Regarding `CCOc1ccc(N2C(=O)CC(N3CCN(CCc4ccncc4)CC3)C2=O)cc1` (centres unmarked) [CBK269930], the viability at 28.5 h, 10 µM turned out to be 106%.
On to `N#Cc1ccc(NC(=O)CSc2cnn[nH]2)cc1` [CBK269931], for which the viability at 28.5 h, 10 µM was 87.7%.
Same read-out and setting: as for `Cc1nn(Cc2cccc3ccccc23)c(C)c1NC(=O)c1ccccn1` [CBK269936], the figure is 105%; as for `COc1ccc(Cl)cc1NS(=O)(=O)N1CCOCC1` [CBK269937], 93%; as for `O=C(NCCCn1ccnc1)c1cccnc1-c1nc2ccccc2s1` [CBK269939], 90.5%.
Same read-out and setting: the value for `CC(C)(Oc1ccc(Cl)cc1)C(=O)Nc1ccc(CN2CCOCC2)cc1` [CBK269940] was 89.1%.
On to `O=C(O)CCCn1cc(NC(=O)c2c(F)cccc2F)cn1` [CBK269941], for which the viability at 28.5 h, 10 µM came out at 86.6%.
For the molecule `CC(Oc1ccc(S(=O)(=O)N2CCN(C)CC2)cc1)C(=O)NC1CCCCC1` (centres unmarked) [CBK269943], the viability at 28.5 h, 10 µM is 97.9%.
For the molecule `O=C(NCCCN1CCOCC1)C1CCCN1S(=O)(=O)c1ccc(Cl)cc1` (centres unmarked) [CBK269944], the viability at 28.5 h, 10 µM came out at 92.1%.
`Cc1cc(NS(=O)(=O)N2CCCCC2)no1` [CBK269947]: the viability at 28.5 h, 10 µM was 100%.
The same measure, in the same setting: the value for `O=C(Nc1ccccc1N1CCN(C(=O)c2ccccc2)CC1)c1cccnc1` [CBK269948] was 100%; that for `COc1ccccc1-c1nnc(SCc2cccc(C(=O)O)c2)[nH]1` [CBK269952] was 85.3%; that for `O=C(O)CC1C(=O)NCCN1Cc1cccc(C(F)(F)F)c1` (centres unmarked) [CBK269958] was 91.1%.
Same read-out and setting: as for `Cc1cccc(OC(C)C(=O)Nc2ccccc2C(=O)N2CCCCC2)c1` (centres unmarked) [CBK269960], the figure is 85.4%; as for `c1ccc(-c2nnc(CSc3nnc(-c4ccncc4)[nH]3)o2)cc1` [CBK269962], 94.9%; as for `O=C(Nc1cccnc1)c1ccc(NC(=O)C2OCCc3ccccc32)cc1` (centres unmarked) [CBK269963], 86.6%.
On to `NC(CCc1nc2ccccc2[nH]1)c1nc2ccccc2[nH]1` (centres unmarked) [CBK269970], for which the viability at 28.5 h, 10 µM is 96.2%.
`COc1ccccc1NC(=O)Cn1nc(-c2ccc(C)cc2)ccc1=O` [CBK269974]: the viability at 28.5 h, 10 µM came to 93.1%.
On to `O=C(COc1ccc2c(c1)OCO2)N1CCN(Cc2ccccc2)CC1` [CBK269977], for which the viability at 28.5 h, 10 µM was 84.8%.
For the molecule `CC1(C)CC(=O)C2=C(C1)N=C(Nc1nc3ccccc3o1)NC2c1ccccn1` (centres unmarked) [CBK269978], the viability at 28.5 h, 10 µM was 88.8%.
As to `O=C(O)Cc1ccc(NS(=O)(=O)c2ccc(F)cc2)cc1` [CBK269981], the viability at 28.5 h, 10 µM was determined as 94.2%.
On the same count and under the same terms, as for `Nc1cc(=O)[nH]c(=O)n1CCc1ccccc1` [CBK269984], the figure is 86%; as for `COc1ccc(CN2CCNC(=O)C2CC(=O)O)cc1OC` (centres unmarked) [CBK269991], 102%; as for `COc1ccc(C)c(NC(=O)NCCc2c[nH]cn2)c1` [CBK269992], 88.8%.
Turning to `O=C(Nc1ccc(Cl)cc1C(=O)O)c1ccccc1` [CBK269993], the viability at 28.5 h, 10 µM is 87.5%.
For `CCOc1ccc(Cl)cc1S(=O)(=O)NCCO` [CBK269996], the viability at 28.5 h, 10 µM amounted to 94%.
Regarding `COc1ccc(Cl)cc1S(=O)(=O)N1CCC(C(=O)NCCO)CC1` [CBK270002], the viability at 28.5 h, 10 µM is 84%.
For `c1ccc(-c2nnc(SCc3nnc(-c4ccccc4)o3)[nH]2)cc1` [CBK270003], the viability at 28.5 h, 10 µM was found to be 104%.
Still for that read-out and setting: the value for `CCOc1ccccc1NC(=O)CSc1c[nH]nn1` [CBK270005] was 83.3%; that for `O=C(Nc1ccccc1N1CCOCC1)c1cccc(OCc2ccccc2)c1` [CBK270011] was 104%.
On to `COc1cc(NC(=O)CC2NC3CCCCC3NC2=O)cc(OC)c1OC` (centres unmarked) [CBK270012], for which the viability at 28.5 h, 10 µM worked out at 84.5%.
As to `COc1cc(CNCCO)ccc1OCc1cccc(Cl)c1` [CBK270013C], the viability at 28.5 h, 10 µM came to 94.5%.
On to `O=C(Nc1ccc(S(=O)(=O)NCCN2CCOCC2)cc1)N1CCCC1` [CBK270015], for which the viability at 28.5 h, 10 µM came out at 89.8%.
Turning to `O=C(Nc1ccc(Cl)c(C(=O)O)c1)c1cccc(-n2cnnc2)c1` [CBK270016], the viability at 28.5 h, 10 µM was determined as 86.5%.
With `Cc1nnc(SCc2cc(=O)[nH]c(N3CCN(c4ccccc4F)CC3)n2)s1` [CBK270017], the viability at 28.5 h, 10 µM came out at 97.8%.
As for `COc1ccc(C(=O)NCCCc2nc3ccccc3[nH]2)cc1OC` [CBK270018], the viability at 28.5 h, 10 µM was 101%.
On the same count and under the same terms, as for `COc1cccc(NC(=O)NCCc2ccncc2)c1` [CBK270022], the figure is 90.3%; as for `CC1(C)CC(=O)C2=C(C1)NC(Nc1nc3ccccc3s1)=NC2c1cccnc1` (centres unmarked) [CBK270025], 99.4%.
Consider `Cc1cc(S(=O)(=O)N2CCCC2)ccc1OCC(=O)NCc1ccccn1` [CBK270027], for which the viability at 28.5 h, 10 µM was determined as 96%.
Turning to `Cc1ccc(NC(=O)CN2C(=O)c3ccccc3C2=O)c(O)c1` [CBK270028], the viability at 28.5 h, 10 µM was 88.2%.
In the case of `Nc1nc(/C=C/c2cccs2)nc(-c2ccccc2O)n1` [CBK270033], the viability at 28.5 h, 10 µM is 105%.
On to `O=C(Nc1ccc(N2CCN(C(=O)c3ccco3)CC2)cc1)c1cccnc1` [CBK270034], for which the viability at 28.5 h, 10 µM came out at 102%.
The same measure, in the same setting: the value for `Cn1c(=O)[nH]c(=O)c2c1nc(CN1CCOCC1)n2Cc1ccc(F)cc1` [CBK270040] was 99.2%; that for `COc1ccc(CC(=O)NCc2nc(-c3ccc(OC)cc3)no2)cc1` [CBK270043] was 92%; that for `OCCN1CCN(c2nnc(-c3ccccc3)cc2-c2ccccc2)CC1` [CBK270045] was 86.2%.
For the molecule `O=C(c1cccnc1)N1CCN(C2CC(=O)N(c3ccc(F)cc3)C2=O)CC1` (centres unmarked) [CBK270049], the viability at 28.5 h, 10 µM amounted to 91.5%.
Turning to `Ic1cnn(Cc2nc(-c3ccc4c(c3)OCO4)no2)c1` [CBK270050], the viability at 28.5 h, 10 µM worked out at 106%.
For `O=C(Nc1ccc(C(=O)O)c(O)c1)c1ccc(Br)o1` [CBK270053], the viability at 28.5 h, 10 µM came to 87%.
`CN1CCN(C(=O)c2ccccc2NC(=O)c2ccc(C(C)(C)C)cc2)CC1` [CBK270054]: the viability at 28.5 h, 10 µM came out at 93.4%.
For `O=C(CCn1cnc2ccccc2c1=O)Nc1ccccc1C(F)(F)F` [CBK270056], the viability at 28.5 h, 10 µM stood at 101%.
Still for that read-out and setting: the value for `Nc1nnc(SCc2nc(=O)c3ccccc3[nH]2)s1` [CBK270059] was 92.2%; that for `c1ccc(-c2nnc(-c3ccncc3)nc2-c2ccccc2)cc1` [CBK270061] was 81.1%; that for `O=C(O)COc1ccc(NC(=O)C2CCCO2)cc1` (centres unmarked) [CBK270063] was 102%.
Same read-out and setting: the value for `CCc1ccc(Nc2nc(N)nc(CN3CCN(c4ccccn4)CC3)n2)cc1` [CBK270064] was 102%.
Regarding `CCOC(=O)CC1C(=O)NCCN1Cc1ccoc1` (centres unmarked) [CBK270066], the viability at 28.5 h, 10 µM came to 92.4%.
With `Cc1nn(-c2ccc(N3CCNCC3)nn2)c(=O)c2ccccc12` [CBK270067], the viability at 28.5 h, 10 µM was 88.1%.
For `O=C(O)c1cccc(NS(=O)(=O)c2cccs2)c1` [CBK270068], the viability at 28.5 h, 10 µM was 59.5%.
`O=C(CSc1nnc(-c2ccncc2)s1)Nc1ccc(Cl)cc1` [CBK270069]: the viability at 28.5 h, 10 µM was found to be 87.9%.

The data set is the same for the next values; noted with them: human, hela cells, % viability, bulk resorufin, single well.
With `CSc1nnc(C(N)Cc2c[nH]c3ccccc23)o1` (centres unmarked) [CBK269950C], the viability at 28.5 h, 10 µM came to 89.8%.

The viability is a read-out of living cells in per cent, often relative to untreated cells.
